Laboratory results published in patent US8883963B2 (Cadila Healthcare Limited, priority 2007, dated 2014).
Non-standard residues stand in square brackets, D forms with d. Residues, ends and D or L forms follow the SMILES beside them. ξ: configuration not given here. *: point of attachment. X5 = CCc1cc(OC)ccc1-c1ccc(CC(N*)C(=S)NC(CCCc2ccccc2F)C(N)=O)cc1; Leu(5,5,5,5',5',5'-F6) = N[C@@H](CC(C(F)(F)F)C(F)(F)F)C(=O)O; ξBip(2'-Et-4'-OMe) = CCc1cc(OC)ccc1-c1ccc(CC(N)C(=O)O)cc1; ξNva(5-(3,5-Me2-Ph)) = Cc1cc(C)cc(CCCC(N)C(=O)O)c1; ξαMePhe(2-F) = CC(N)(Cc1ccccc1F)C(=O)O; aThr = C[C@H](O)[C@H](N)C(=O)O; Ac5c = NC1(C(=O)O)CCCC1; Aib = CC(C)(N)C(=O)O

How the values were obtained:
[1] = tested on: RIN5F (Rat Insulinoma) cells; assay: In vitro glucose-dependent insulin secretion (RIN5F cell assay screening protocol); assay type: cell-based; conditions: 16.7 mM glucose load
Description: RIN5F (Rat Insulinoma) cells were cultured in RPMI 1640 medium supplemented with sodium pyruvate (1 mM) HEPES and Glucose (4.5 g/L) in a humidified incubator (5% CO2), at 37° C. After trypsinization, RIN5F cells were seeded at a concentration of 0.2×10^6 cells per well, in 12 well plates.
The buffer was replaced after 40 min. and the cells were incubated (37° C.) with the test peptidomimetics, at different concentration, for 30 min., both in the presence (16.7 mM) and absence (0 mM) of glucose load. The supernatant was collected and the insulin amount was measured by ultra sensitive Rat insulin ELISA kit (Crystal Chem, IL). The protein was estimated in the supernatant using Bicinchoninic Acid kit, according to the manufacturer's protocol (Sigma Aldrich, MO). The total insulin content obtained in Pico-gram (pg) was divided with the total protein (μg) in order to normalize for differences in cell density between wells.

[2] = biological target: T1, human glucagon receptor (Homo sapiens, UniProt P47871); assay: In vitro human glucagon antagonist activity (inhibition of cAMP production) in CHO/human glucagon R cells; assay type: cell-based; conditions: with saturated concentration of glucagon peptide
T1 construct: The full-length cDNA was cloned in pcDNA3.1 (Invitrogen); expressed in transfected cells
Description: The CHO-K1 cells (CRL 9618) were obtained from American Type Culture Collection (Rockville, Md.). CHO cells were grown in Ham's F12 medium containing L-Glutamine (2 mM), HEPES (25 mM), NaHCO3 (1.1 g/L) and supplemented with newborn Calf Serum (NBCS; 10%), Penicillin (50 U/ml (v/v)) and Streptomycin (50 ug/ml (v/v)). Cells were split every 3 days 1:8.
The full-length cDNA was cloned in pcDNA3.1 (Invitrogen). […] Clones expressing the receptor were generated by G418 (800 μg/ml active, Sigma) selection. The stable clones were thereafter maintained at 500 ug/ml (G418). The selected clone was used between passages 9-25 for cAMP assays.
The cells were trypsinized using 2 ml of TPVG (0.25% trypsin, 0.53 mM EDTA, 1.38-mM glucose). The trypsin was inactivated using Ham's F12 medium containing 10% NBCS and the cells were suspended in 2 ml of complete medium. […] The medium was aspirated off from the 12 well plate and the cells were washed once using Ham's F12 (plain). The cells were incubated at 37° C. with 500 ul of Ham's F12+1% BSA+0.125 mM RO-20 for 30 min. […] After the incubation, the medium was removed and cells were washed once with plain Ham's F12. Subsequently, the cells were lysed by adding 500 ul of ice cold 0.1 N HCl to each well and shaking for 30 minutes at 200 rpm. The cells were then scrapped, the lysate was collected in micro centrifuge tubes and centrifuged at 12000 rpm for 10 min to remove the debris. 300 ul of supernatant from each micro-centrifuge tube was then removed into a glass tube and dried under N2 for 30 min, for cAMP estimation. The total cAMP was estimated from the sample according to the manufacturer's protocol using Cyclic AMP immunoassay kit (R&D systems, Minneapolis. MN). The remaining supernatant is used to determine the protein concentration using micro BCA (Sigma). Data is calculated as percent of control (Vehicle: water) and expressed as Mean+SD.

T1 sequence (P47871 26-477): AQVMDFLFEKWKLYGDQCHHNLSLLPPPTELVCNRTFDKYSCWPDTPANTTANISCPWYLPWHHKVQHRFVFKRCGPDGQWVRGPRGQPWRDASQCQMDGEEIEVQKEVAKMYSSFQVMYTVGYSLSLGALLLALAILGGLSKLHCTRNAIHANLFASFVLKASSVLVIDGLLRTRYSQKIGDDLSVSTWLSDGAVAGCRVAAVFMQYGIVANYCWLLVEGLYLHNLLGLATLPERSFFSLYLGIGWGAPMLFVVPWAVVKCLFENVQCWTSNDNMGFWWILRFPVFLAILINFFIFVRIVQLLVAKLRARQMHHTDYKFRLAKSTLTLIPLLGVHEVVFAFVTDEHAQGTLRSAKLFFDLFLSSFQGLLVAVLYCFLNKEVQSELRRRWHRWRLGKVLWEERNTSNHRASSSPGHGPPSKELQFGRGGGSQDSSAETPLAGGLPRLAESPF

| Compound | Insulin secretion ([1]; 0.1 nM test compd.) | Insulin secretion ([1]; 1 nM test compd.) | Insulin secretion ([1]; 10 nM test compd.) | Human Glucagon receptor antagonistic activity shown as inhibition of cAMP production of Glucagon peptide ([2]; 1 nM test compound) | Human Glucagon receptor antagonistic activity shown as inhibition of cAMP production of Glucagon peptide ([2]; 10 nM test compound) | Human Glucagon receptor antagonistic activity shown as inhibition of cAMP production of Glucagon peptide ([2]; 100 nM test compound) | Human Glucagon receptor antagonistic activity shown as inhibition of cAMP production of Glucagon peptide ([2]; 1 μM test compound) | Human Glucagon receptor antagonistic activity shown as inhibition of cAMP production of Glucagon peptide ([2]; 10 μM test compound) |
| --- | --- | --- | --- | --- | --- | --- | --- | --- |
| CCc1cc(OC)ccc1-c1ccc(CC(NC(=O)[C@H](CC(=O)O)NC(=O)[C@H](CO)NC(=O)[C@@H](NC(=O)C(C)(Cc2ccccc2F)NC(=O)[C@@H](NC(=O)CNC(=O)[C@H](CCC(N)=O)NC(=O)C(C)(C)NC(=O)[C@@H](N)Cc2c[nH]cn2)[C@@H](C)O)[C@@H](C)O)C(=O)NC(CCCc2ccc(Cl)cc2C)C(N)=O)cc1 (single isomer, unassigned) [compound 40] | 12.6 ± 0.20 pg/µg/h | 15.9 ± 0.31 pg/µg/h | 28.4 ± 0.11 pg/µg/h | 18 ± 0.07 pmol/ml/μg prt | 16 ± 0.01 pmol/ml/μg prt | 12 ± 0.03 pmol/ml/μg prt | 8 ± 0.02 pmol/ml/μg prt | 6 ± 0.08 pmol/ml/μg prt |
| CCc1cc(OC)ccc1-c1ccc(CC(NC(=O)[C@H](CC(=O)O)NC(=O)[C@H](CO)NC(=O)[C@@H](NC(=O)C(C)(Cc2ccccc2F)NC(=O)[C@@H](NC(=O)CNC(=O)[C@H](CC(C(F)(F)F)C(F)(F)F)NC(=O)C(C)(C)NC(=O)[C@@H](N)Cc2c[nH]cn2)[C@H](C)O)[C@H](C)O)C(=S)NC(CCCc2ccccc2F)C(N)=O)cc1 (stereo partly drawn) [compound 218] (H-H[Aib][Leu(5,5,5,5',5',5'-F6)]G[aThr][ξαMePhe(2-F)][aThr]SD-X5) | 12.3 ± 0.33 pg/µg/h | 14.8 ± 0.16 pg/µg/h | 28.1 ± 0.22 pg/µg/h | 9 ± 0.11 pmol/ml/μg prt | 6 ± 0.12 pmol/ml/μg prt | 5 ± 0.14 pmol/ml/μg prt | 3 ± 0.22 pmol/ml/μg prt | 0 pmol/ml/μg prt |
| CCc1cc(OC)ccc1-c1ccc(CC(NC(=O)[C@H](CC(=O)O)NC(=O)[C@H](CO)NC(=O)[C@@H](NC(=O)[C@H](Cc2ccccc2)NC(=O)[C@@H](NC(=O)CNC(=O)[C@H](CCC(N)=O)NC(=O)C2(NC(=O)[C@@H](N)Cc3c[nH]cn3)CCCC2)[C@@H](C)O)[C@@H](C)O)C(=O)NC(CCCc2cc(C)cc(C)c2)C(N)=O)cc1 (stereo partly drawn) [compound 26] (H-H[Ac5c]QGTFTSD[ξBip(2'-Et-4'-OMe)][ξNva(5-(3,5-Me2-Ph))]-NH2) | 16.6 ± 0.41 pg/µg/h | 22.9 ± 0.32 pg/µg/h | 36.6 ± 0.19 pg/µg/h | 15 ± 0.11 pmol/ml/μg prt | 12 ± 0.13 pmol/ml/μg prt | 8 ± 0.09 pmol/ml/μg prt | 4 ± 0.01 pmol/ml/μg prt | 2 ± 0.08 pmol/ml/μg prt |
| CCc1cc(OC)ccc1-c1ccc(CC(NC(=O)[C@H](CC(=O)O)NC(=O)[C@H](CO)NC(=O)[C@@H](NC(=O)C(C)(Cc2ccccc2F)NC(=O)[C@@H](NC(=O)CNC(=O)[C@H](CC(C(F)(F)F)C(F)(F)F)NC(=O)C(C)(C)NC(=O)[C@@H](N)Cc2c[nH]cn2)[C@@H](C)O)[C@H](C)O)C(=O)NC(CCCc2ccccc2)C(N)=O)cc1 (single isomer, unassigned) [compound 225] | 12.4 ± 0.22 pg/µg/h | 15.2 ± 0.32 pg/µg/h | 29.6 ± 0.50 pg/µg/h | 5 ± 0.01 pmol/ml/μg prt | 2 ± 0.17 pmol/ml/μg prt | 0 pmol/ml/μg prt | 0 pmol/ml/μg prt | 0 pmol/ml/μg prt |
| CCc1cc(OC)ccc1-c1ccc(CC(NC(=O)[C@H](CC(=O)O)NC(=O)[C@H](CO)NC(=O)[C@@H](NC(=O)C(C)(Cc2ccccc2F)NC(=O)[C@@H](NC(=O)CNC(=O)[C@H](CC(C(F)(F)F)C(F)(F)F)NC(=O)C(C)(C)NC(=O)[C@@H](N)Cc2c[nH]cn2)[C@@H](C)O)[C@@H](C)O)C(=O)NC(CCCc2ccc(Cl)cc2C)C(N)=O)cc1 (single isomer, unassigned) [compound 237] | 12.0 ± 0.14 pg/µg/h | 14.3 ± 0.12 pg/µg/h | 27.8 ± 0.32 pg/µg/h | 21 ± 0.11 pmol/ml/μg prt | 19 ± 0.02 pmol/ml/μg prt | 18 ± 0.07 pmol/ml/μg prt | 18 ± 0.03 pmol/ml/μg prt | 16 ± 0.02 pmol/ml/μg prt |
| CCc1cc(OC)ccc1-c1ccc(CC(CNC(CCCc2ccccc2F)C(N)=O)NC(=O)[C@H](CC(=O)O)NC(=O)[C@H](CO)NC(=O)[C@@H](NC(=O)C(C)(Cc2ccccc2F)NC(=O)[C@@H](NC(=O)CNC(=O)C(CCC#N)NC(=O)C(C)(C)NC(=O)[C@@H](N)Cc2c[nH]cn2)[C@H](C)O)[C@H](C)O)cc1 (single isomer, unassigned) [compound 192] | 16.6 ± 0.41 pg/µg/h | 22.9 ± 0.32 pg/µg/h | 36.7 ± 0.11 pg/µg/h | 4 ± 0.09 pmol/ml/μg prt | 2 ± 0.12 pmol/ml/μg prt | 0 pmol/ml/μg prt | 0 pmol/ml/μg prt | 0 pmol/ml/μg prt |
